From US11643428B2, “Therapeutic drug for neurodegenerative disease and application thereof” (SHANGHAI PHARMACEUTICALS HOLDING CO., LTD., priority 2018, dated 2023)

Columns and labels:
MPTP mice model = assay: Striatal dopaminergic nerve fibers, TH western blot, MPTP model; format: in vivo, mouse; conditions: PL201+MPTP vs NS+MPTP group, Day 7 after MPTP modeling
Protocol: The mice were randomly divided into 4 groups: a group in which the mice was administrated with normal saline (NS), a MPTP model group in which the mice was intragastrical administrated with normal saline (NS+MPTP), a group in which the mice was intragastrical administrated with 50 mg of compound PL201 (PL201), and a MPTP model group in which the mice was intragastrical administrated with compound PL201 (PL201+MPTP).
11 animals were set in the group in which the mice was administrated with normal saline (NS), 14 animals were set in the MPTP model group in which the mice was intragastrical administrated with normal saline (NS+MPTP), 4 animals were set in the group in which the mice was intragastrically administrated with 50 mg of compound PL201 (PL201), 15 animals were set in the MPTP model group in which the mice was intragastrically administrated with the compound PL201 (PL201+MPTP).
The administration started on the day of animal grouping: mice in the NS and the NS+MPTP group were administrated with normal saline, and mice in the other two groups were administrated with compound PL201 once a day for 7 consecutive days. […]
On Day 7 after MPTP modeling, animals in each group were anesthetized with 10% chloral hydrate. […] The fluorescence signal was detected by Odyssey near-infrared fluorescence scanner and made statistics.

AD mice [1] = assay: Neurogenesis in vivo, BrdU/NeuN staining of hippocampus; parameters: species or system mouse; conditions: 10 mg/kg intragastrically once daily, 90 days, vs control group
Protocol: (§1) The inventors conducted PL201 administration experiments on AD mice (5-6 months aged AD mice were selected). Each mouse was intragastrically administrated 100 μl PL201, and the dosage was 10 mg/kg mouse body weight. Moreover, mice in the control group were administrated 100 μl water once daily for 90 days, and from Day 60 were intraperitoneally injected with 5-bromo-2′-deoxyuridine (BrdU) of 50 mg/kg mouse body weight once daily for 7 days. After 90 days of administration, the mice were perfused with PFA after anesthesia, and the whole brain was taken for further experiments.
For the obtained whole brain, a mature neuron marker NeuN in the hippocampus of mice was detected: The brain of mouse which had been perfused with PFA was then fixed in 4% PFA for 24 hours, and then kept for 72 hours in 30% sucrose for cryoprotection. After the treatment was completed, the region of cerebellum was removed, and the olfactory bulb was placed upright on the filter paper and frozen at −80° C. for at least 24 hours. The frozen sectioning was performed vertically and longitudinally with a thickness of 30 μm. A total of 8×9×=72 slices (2.16 mm) including DG portion were cut and arranged in slicing order. One slice was taken from every 8 slices and combined into a group of brain slices for staining. […] The number of single or double positive cells was analyzed by Image Pro Plus software. […]

mouse BV-2 cell line = assay: Expression of inflammatory factors in LPS-treated BV-2 cells by QPCR; format: cell-based; conditions: PL201 10, 30, 100 μM, LPS 300 ng/ml, 24 hours
Protocol: Neuroinflammation in the brain of AD is one of the causes of cognitive decline. Microglial cells are the key cells that mediate neuroinflammation. In this example, the inventors have explored whether PL201 has the effect of inhibiting neuroinflammation by detecting the expressions of inflammatory factors on mouse BV-2 cell line.
BV-2 cells were cultured in DMEM, plated to 24 well plates and cultured for 24 hours, then PL201 (0, 10, 30, and 100 μM) and LPS (300 ng/ml) were added. After co-incubation for 24 hours, Trizol was used to extract RNA and the expressions of related inflammatory factors were detected by QPCR.
Mouse BV-2 cells were cultured in DMEM, plated to 24 well plates and cultured for 24 hours, then PL202 (0, 30, 100, and 300 μM) and LPS (300 ng/ml) were added. After co-incubation for 24 hours, Trizol was used to extract RNA and the expressions of related inflammatory factors were detected by QPCR.

AD mice [2] = assay: Aβ plaques in brain, thioflavin S staining; format: in vivo, mouse; conditions: 10 mg/kg intragastrically, 90 days, vs control group
Protocol: as §1
The inventors performed frozen sectioning coronally with a thickness of 30 μm on the whole brain sample of AD mice after administration in example 2, and the slices were stained with thioflavin S and DAPI. The stained brain slices were then photographed with Olympus FV100i or Leica SP-8.

For `COc1cc(/C=C/C(=O)OC2OC(C)C(O)C(O)C2O)ccc1O` [PL201, (α-L-rhamnopyranosyl) ferulic acid ester], the “level of striatal dopaminergic nerve fibers (TH western blot)” value (MPTP mice model) was “significantly increased”, the “BrdU/NeuN double-positive newborn neurons in hippocampus” value (AD mice [1]) was “more BrdU/NeuN double-positive newborn neurons” and the “expression of inflammatory factor IL-1β” value (mouse BV-2 cell line) was “significantly inhibit”. For the same molecule, the “expression of inflammatory factor TNFα” value (mouse BV-2 cell line) was “significantly inhibit” and the “Aβ plaques in brain” value (AD mice [2]) was “less Aβ plaques”.
